Data published in ChEMBL document CHEMBL1201862, “PubChem BioAssay data set” (2004).
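Values below derive from 48-hour exposures of cells grown in 96-well plates, with endpoints linearly interpolated between the two concentrations bracketing the appropriate inhibition level. GI50: concentration for 50% inhibition of growth.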 Activity calls are given as the source filed them. Cut-off read from the data, not from the text of the source: active = GI50 up to about 1.1 µM and inactive = higher.

What was measured:
Assay in all cases: NCI anticancer screen, dose series, 48 h
SF-268 = test system: SF-268
MCF7 = test system: MCF7
MDA-MB-435 = test system: MDA-MB-435
SK-OV-3 = test system: SK-OV-3
RPMI-8226 = test system: RPMI-8226
SK-MEL-2 = test system: SK-MEL-2
NCI-H522 = test system: NCI-H522
MDA-MB-231 = test system: MDA-MB-231
MDA-N = test system: MDA-N
HL-60 = test system: HL-60
PC-3 = test system: PC-3
SW-620 = test system: SW-620
SNB-75 = test system: SNB-75
DU-145 = test system: DU-145
Hs-578T = test system: Hs-578T
T47D = test system: T47D
U-251 = test system: U-251
SK-MEL-5 = test system: SK-MEL-5
OVCAR-3 = test system: OVCAR-3
ACHN = test system: ACHN

Measured: GI50

Cc1cc2c(cc1C)NC1=C(O)C(c3c[nH]c4ccc(COc5ccccc5)cc34)OC1=N2 (stereo not given)
inactive: SF-268 64.9 µM | MCF7 72.1 µM | MDA-MB-435 > 100 µM | SK-OV-3 33.6 µM | RPMI-8226 > 100 µM | SK-MEL-2 58.2 µM | NCI-H522 > 100 µM | MDA-MB-231 22.3 µM | MDA-N > 100 µM | HL-60 > 100 µM | PC-3 > 100 µM | SW-620 > 100 µM | SNB-75 14.9 µM | DU-145 > 100 µM | Hs-578T 36 µM | T47D > 100 µM | U-251 34.4 µM | SK-MEL-5 > 100 µM | OVCAR-3 > 100 µM | ACHN 45.7 µM

CCOC(=O)N1c2ccccc2N(C(=O)OCC)C1CC(=O)/C=C/c1ccccc1
inactive: SF-268 2.37 µM | MCF7 3.1 µM | MDA-MB-435 2.74 µM | SK-OV-3 5.35 µM | RPMI-8226 3.19 µM | SK-MEL-2 1.94 µM | NCI-H522 1.78 µM | MDA-MB-231 4.03 µM | MDA-N 3.57 µM | HL-60 2.61 µM | PC-3 3.94 µM | SW-620 2.06 µM | SNB-75 3.34 µM | DU-145 2.69 µM | Hs-578T 1.87 µM | T47D 5.16 µM | U-251 3.46 µM | SK-MEL-5 2.47 µM | OVCAR-3 3.13 µM | ACHN 4.15 µM

O=C1NN=C2C=C(c3ccc(Cl)cc3)CC(c3cccc(Br)c3)C12 (stereo not given)
inactive: SF-268 68.5 µM | MCF7 44 µM | MDA-MB-435 77.1 µM | SK-OV-3 > 100 µM | RPMI-8226 26.1 µM | SK-MEL-2 84.5 µM | NCI-H522 38.4 µM | MDA-MB-231 30.4 µM | MDA-N > 100 µM | HL-60 42 µM | PC-3 53.7 µM | SW-620 81.8 µM | SNB-75 80.9 µM | DU-145 41.8 µM | Hs-578T 19.1 µM | T47D 22.1 µM | U-251 59.2 µM | SK-MEL-5 > 100 µM | OVCAR-3 42.1 µM | ACHN 33.7 µM

c1cc2cc3c4c5c(cc6ccc7cc8cc9c%10c8c8c7c6c5c8c5c%10c(c1C9N1CCOCCOCCOCCOCCOCC1)c2c45)C3 (stereo not given)
inactive: SF-268 > 100 µM | MCF7 > 100 µM | MDA-MB-435 > 100 µM | SK-OV-3 > 100 µM | RPMI-8226 > 100 µM | SK-MEL-2 > 100 µM | NCI-H522 > 100 µM | MDA-MB-231 > 100 µM | MDA-N > 100 µM | HL-60 > 100 µM | PC-3 > 100 µM | SW-620 > 100 µM | SNB-75 > 100 µM | DU-145 > 100 µM | Hs-578T > 100 µM | T47D > 100 µM | U-251 > 100 µM | SK-MEL-5 78.9 µM | OVCAR-3 > 100 µM | ACHN > 100 µM
